Values quoted from earlier work, collected in paper PMC4826315 (Journal of molecular biology, 2016).

Assays:
Mdm2 = settings: read-out: IC50, inhibition of p53 binding to Mdm2; FP assay
retinoblastoma tumors = settings: mouse model system

For `COc1ccc(C2=N[C@@H](c3ccc(Cl)cc3)[C@@H](c3ccc(Cl)cc3)N2C(=O)N2CCNC(=O)C2)c(OC(C)C)c1` [Nutlin-3a], the IC50 (Mdm2) is given as […] and the “effect on retinoblastoma tumors” value (retinoblastoma tumors) is given as “caused regression of retinoblastoma tumors”.
